Results published in PubChem BioAssay AID1963421 (Molecular Pharmacology Branch, DTP, NCI, 2024).

System: 519858-162-T-J1-PDC complex spheroid growth, % test/control
Experiment: Anticancer human tumor 519858-162-T-J1-PDC patient-derived colon adenocarcinoma cell line growth inhibition [Asc]
Conditions: for IC50: curve of first compound; for viability, T/C: stronger effect = lower value
Outline: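 Tumor cells were grown as multicellular spheroids with stromal HUVEC and mesenchymal stem cells and treated singly or in combination. Concentrations fell in half-log steps from the clinical Cmax, or from 10 microM where none was known.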

[1] = second compound 0.0316 µM, first compound 0.0316 µM
[2] = second compound 0.0316 µM, first compound 0.1 µM
[3] = second compound 0.0316 µM, first compound 0.316 µM
[4] = second compound 0.0316 µM, first compound 1 µM
[5] = second compound 0.1 µM, first compound 0.0316 µM
[6] = second compound 0.1 µM, first compound 0.1 µM
[7] = second compound 0.1 µM, first compound 0.316 µM
[8] = second compound 0.1 µM, first compound 1 µM
[9] = second compound 0.316 µM, first compound 0.0316 µM
[10] = second compound 0.316 µM, first compound 0.1 µM
[11] = second compound 0.316 µM, first compound 0.316 µM
[12] = second compound 0.316 µM, first compound 1 µM
[13] = second compound 1 µM, first compound 0.0316 µM
[14] = second compound 1 µM, first compound 0.1 µM
[15] = second compound 1 µM, first compound 0.316 µM
[16] = second compound 1 µM, first compound 1 µM
[17] = second compound 3.16 µM, first compound 0.0316 µM
[18] = second compound 3.16 µM, first compound 0.1 µM
[19] = second compound 3.16 µM, first compound 0.316 µM
[20] = second compound 3.16 µM, first compound 1 µM
[21] = second compound 10 µM, first compound 0.0316 µM
[22] = second compound 10 µM, first compound 0.1 µM
[23] = second compound 10 µM, first compound 0.316 µM
[24] = second compound 10 µM, first compound 1 µM
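Note: seven day drug exposure begun three days after spheroid seeding.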
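Throughout, for viability, T/C: 100% = DMSO vehicle wells and lower values mean less viable spheroid.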

C#Cc1c(F)ccc2cc(O)cc(-c3ncc4c(N5CC6CCC(C5)N6)nc(OCC56CCCN5CC(F)C6)nc4c3F)c12 (centres undefined) + Cc1c(S(C)(=O)=O)c(-c2cc(F)cc(N3CCN(c4ccc(NS(=O)(=O)c5ccc(NC(CCN6CCC(C(=O)OCCCP(=O)(O)O)CC6)CSc6ccccc6)c(S(=O)(=O)C(F)(F)F)c5)cc4)CC3)c2)c(-c2ccc(Cl)cc2)n1C(C)C
IC50 (second compound 0.0316 µM): > 10000 nM | IC50 (second compound 0.1 µM): > 10000 nM | IC50 (second compound 0.316 µM): > 10000 nM | IC50 (second compound 1 µM): > 10000 nM | IC50 (second compound 3.16 µM): > 10000 nM | IC50 (second compound 10 µM): > 10000 nM | viability, T/C [1]: 117% | viability, T/C [2]: 88.2% | viability, T/C [3]: 89.7% | viability, T/C [4]: 89.5% | viability, T/C (second compound 0.0316 µM, first compound 3.16 µM): 81.6% | viability, T/C (second compound 0.0316 µM, first compound 10 µM): 83.9% | viability, T/C [5]: 60.5% | viability, T/C [6]: 109% | viability, T/C [7]: 105% | viability, T/C [8]: 99.7% | viability, T/C (second compound 0.1 µM, first compound 3.16 µM): 87.1% | viability, T/C (second compound 0.1 µM, first compound 10 µM): 89.6% | viability, T/C [9]: 88.2% | viability, T/C [10]: 88.3% | viability, T/C [11]: 82.6% | viability, T/C [12]: 77.3% | viability, T/C (second compound 0.316 µM, first compound 3.16 µM): 64.6% | viability, T/C (second compound 0.316 µM, first compound 10 µM): 56.9% | viability, T/C [13]: 84.4% | viability, T/C [14]: 75.1% | viability, T/C [15]: 84% | viability, T/C [16]: 58.2% | viability, T/C (second compound 1 µM, first compound 3.16 µM): 78.7% | viability, T/C (second compound 1 µM, first compound 10 µM): 82.7% | viability, T/C [17]: 70.6% | viability, T/C [18]: 79.9% | viability, T/C [19]: 58.9% | viability, T/C [20]: 57.3% | viability, T/C (second compound 3.16 µM, first compound 3.16 µM): 95.8% | viability, T/C (second compound 3.16 µM, first compound 10 µM): 67.8% | viability, T/C [21]: 62.9% | viability, T/C [22]: 66.2% | viability, T/C [23]: 65.9% | viability, T/C [24]: 56.6% | viability, T/C (second compound 10 µM, first compound 3.16 µM): 60.1% | viability, T/C (second compound 10 µM, first compound 10 µM): 77.5%

CNC(C)C(=O)NC1CN(S(=O)(=O)c2cccc(S(=O)(=O)N3CCC4CCC(C(=O)NC(c5ccccc5)c5ccccc5)N4C(=O)C(NC(=O)C(C)NC)C3)c2)CCC2CCC(C(=O)NC(c3ccccc3)c3ccccc3)N2C1=O (centres undefined) + Cc1c(S(C)(=O)=O)c(-c2cc(F)cc(N3CCN(c4ccc(NS(=O)(=O)c5ccc(NC(CCN6CCC(C(=O)OCCCP(=O)(O)O)CC6)CSc6ccccc6)c(S(=O)(=O)C(F)(F)F)c5)cc4)CC3)c2)c(-c2ccc(Cl)cc2)n1C(C)C
IC50 (second compound 0.0316 µM): > 1000 nM | IC50 (second compound 0.1 µM): > 1000 nM | IC50 (second compound 0.316 µM): > 1000 nM | IC50 (second compound 1 µM): > 1000 nM | IC50 (second compound 3.16 µM): > 1000 nM | IC50 (second compound 10 µM): 506 nM | viability, T/C (second compound 0.0316 µM, first compound 0.00316 µM): 92.5% | viability, T/C (second compound 0.0316 µM, first compound 0.01 µM): 110% | viability, T/C [1]: 45% | viability, T/C [2]: 110% | viability, T/C [3]: 81.5% | viability, T/C [4]: 81.5% | viability, T/C (second compound 0.1 µM, first compound 0.00316 µM): 113% | viability, T/C (second compound 0.1 µM, first compound 0.01 µM): 117% | viability, T/C [5]: 124% | viability, T/C [6]: 90% | viability, T/C [7]: 76.7% | viability, T/C [8]: 97.5% | viability, T/C (second compound 0.316 µM, first compound 0.00316 µM): 104% | viability, T/C (second compound 0.316 µM, first compound 0.01 µM): 107% | viability, T/C [9]: 86.8% | viability, T/C [10]: 78.5% | viability, T/C [11]: 72.3% | viability, T/C [12]: 87.1% | viability, T/C (second compound 1 µM, first compound 0.00316 µM): 102% | viability, T/C (second compound 1 µM, first compound 0.01 µM): 100% | viability, T/C [13]: 83.6% | viability, T/C [14]: 93% | viability, T/C [15]: 96.5% | viability, T/C [16]: 68.9% | viability, T/C (second compound 3.16 µM, first compound 0.00316 µM): 86.9% | viability, T/C (second compound 3.16 µM, first compound 0.01 µM): 93% | viability, T/C [17]: 95.7% | viability, T/C [18]: 82.5% | viability, T/C [19]: 66.8% | viability, T/C [20]: 75% | viability, T/C (second compound 10 µM, first compound 0.00316 µM): 60.5% | viability, T/C (second compound 10 µM, first compound 0.01 µM): 63.2% | viability, T/C [21]: 70.2% | viability, T/C [22]: 49% | viability, T/C [23]: 63.1% | viability, T/C [24]: 33.9%
